In US10584128B2, “Bicyclic dihydropyrimidine-carboxamide derivatives as Rho-Kinase inhibitors” (CHIESI FARMACEUTICI S.p.A., priority 2016, dated 2020):

What was measured:
Rho kinase 1 = Rho kinase 1 (Homo sapiens, UniProt Q13464); assay: In vitro Rho kinase inhibitory activity assay (ADP-Glo kit, Myelin Basic Protein substrate); type: biochemical; details: 10 μM ATP, 25° C., read-out: ROCK1 inhibitory activity (Ki, range of activity)
Protocol: (§1) The effectiveness of compounds of the present invention to inhibit Rho kinase activity can be determined in a 10 μl assay containing 40 mM Tris pH7.5, 20 mM MgCl2 0.1 mg/ml BSA, 50 μM DTT and 2.5 μM peptide substrate (Myelin Basic Protein) using an ADP-Glo kit (Promega). Compounds were dissolved in DMSO such that the final concentration of DMSO was 1% in the assay. All reactions/incubations are performed at 25° C. Compound (2 ul) and either Rho kinase 1 or 2 (4 μl) were mixed and incubated for 30 mins. Reactions were initiated by addition of ATP (4 μl) such that the final concentration of ATP in the assay was 10 μM. After a 1 hour incubation 10 μl of ADP-Glo Reagent was added and after a further 45 minute incubation 20 ul of Kinase Detection Buffer was added and the mixture incubated for a further 30 minutes. The luminescent signal was measured on a luminometer. […] Compounds were tested in dose-response format and the inhibition of kinase activity was calculated at each concentration of compound. To determine the IC50 (concentration of compound required to inhibit 50% of the enzyme activity) data were fit to a plot of % inhibition vs Log10 compound concentration using a sigmoidal fit with a variable slope and fixing the maximum to 100% and the minimum to 0%. To determine the Ki values the Cheng-Prusoff equation was utilized (Ki=IC50/(1+[S]/Km).

Rho kinase 2 = Rho kinase 2 (Homo sapiens, UniProt O75116); assay: as above; type: biochemical; details: 10 μM ATP, 25° C., read-out: ROCK2 inhibitory activity (Ki, range of activity)
Sequence of Rho kinase 2 (O75116 whole entry): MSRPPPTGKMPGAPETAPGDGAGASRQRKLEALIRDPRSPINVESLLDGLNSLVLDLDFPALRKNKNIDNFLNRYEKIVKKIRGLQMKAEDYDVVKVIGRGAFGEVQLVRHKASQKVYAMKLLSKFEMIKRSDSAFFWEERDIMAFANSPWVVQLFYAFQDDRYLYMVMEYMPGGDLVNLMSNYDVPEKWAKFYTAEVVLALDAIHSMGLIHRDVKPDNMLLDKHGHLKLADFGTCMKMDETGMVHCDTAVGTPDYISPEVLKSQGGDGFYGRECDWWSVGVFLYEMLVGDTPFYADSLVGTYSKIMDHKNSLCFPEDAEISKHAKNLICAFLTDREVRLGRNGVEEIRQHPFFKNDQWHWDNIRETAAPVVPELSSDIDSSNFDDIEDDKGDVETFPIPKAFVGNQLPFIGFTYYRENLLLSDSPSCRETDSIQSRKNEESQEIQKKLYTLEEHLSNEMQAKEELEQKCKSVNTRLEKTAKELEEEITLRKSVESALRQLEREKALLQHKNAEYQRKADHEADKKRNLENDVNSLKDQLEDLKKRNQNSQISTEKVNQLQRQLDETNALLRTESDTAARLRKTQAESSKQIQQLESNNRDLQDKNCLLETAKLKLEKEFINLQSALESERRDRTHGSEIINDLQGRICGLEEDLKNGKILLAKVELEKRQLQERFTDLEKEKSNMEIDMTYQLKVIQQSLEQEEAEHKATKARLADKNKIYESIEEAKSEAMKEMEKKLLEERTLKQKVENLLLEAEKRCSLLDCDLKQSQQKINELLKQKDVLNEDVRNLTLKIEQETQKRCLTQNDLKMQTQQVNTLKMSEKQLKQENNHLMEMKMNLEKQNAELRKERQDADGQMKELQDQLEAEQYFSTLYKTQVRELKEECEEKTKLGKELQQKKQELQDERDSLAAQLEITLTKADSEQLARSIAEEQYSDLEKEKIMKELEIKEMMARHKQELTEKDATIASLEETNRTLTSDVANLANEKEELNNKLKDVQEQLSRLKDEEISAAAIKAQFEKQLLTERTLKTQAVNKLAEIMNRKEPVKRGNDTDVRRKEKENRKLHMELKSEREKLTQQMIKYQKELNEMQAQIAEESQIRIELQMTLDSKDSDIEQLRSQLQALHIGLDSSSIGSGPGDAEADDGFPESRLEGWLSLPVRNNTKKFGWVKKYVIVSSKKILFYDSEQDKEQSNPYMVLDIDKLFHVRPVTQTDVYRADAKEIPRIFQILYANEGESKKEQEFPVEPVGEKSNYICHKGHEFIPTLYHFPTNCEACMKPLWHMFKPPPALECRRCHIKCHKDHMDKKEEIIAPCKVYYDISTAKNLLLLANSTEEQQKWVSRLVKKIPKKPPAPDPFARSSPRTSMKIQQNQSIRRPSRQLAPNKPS
Protocol: as §1

Sequence of Rho kinase 1 (Q13464 whole entry): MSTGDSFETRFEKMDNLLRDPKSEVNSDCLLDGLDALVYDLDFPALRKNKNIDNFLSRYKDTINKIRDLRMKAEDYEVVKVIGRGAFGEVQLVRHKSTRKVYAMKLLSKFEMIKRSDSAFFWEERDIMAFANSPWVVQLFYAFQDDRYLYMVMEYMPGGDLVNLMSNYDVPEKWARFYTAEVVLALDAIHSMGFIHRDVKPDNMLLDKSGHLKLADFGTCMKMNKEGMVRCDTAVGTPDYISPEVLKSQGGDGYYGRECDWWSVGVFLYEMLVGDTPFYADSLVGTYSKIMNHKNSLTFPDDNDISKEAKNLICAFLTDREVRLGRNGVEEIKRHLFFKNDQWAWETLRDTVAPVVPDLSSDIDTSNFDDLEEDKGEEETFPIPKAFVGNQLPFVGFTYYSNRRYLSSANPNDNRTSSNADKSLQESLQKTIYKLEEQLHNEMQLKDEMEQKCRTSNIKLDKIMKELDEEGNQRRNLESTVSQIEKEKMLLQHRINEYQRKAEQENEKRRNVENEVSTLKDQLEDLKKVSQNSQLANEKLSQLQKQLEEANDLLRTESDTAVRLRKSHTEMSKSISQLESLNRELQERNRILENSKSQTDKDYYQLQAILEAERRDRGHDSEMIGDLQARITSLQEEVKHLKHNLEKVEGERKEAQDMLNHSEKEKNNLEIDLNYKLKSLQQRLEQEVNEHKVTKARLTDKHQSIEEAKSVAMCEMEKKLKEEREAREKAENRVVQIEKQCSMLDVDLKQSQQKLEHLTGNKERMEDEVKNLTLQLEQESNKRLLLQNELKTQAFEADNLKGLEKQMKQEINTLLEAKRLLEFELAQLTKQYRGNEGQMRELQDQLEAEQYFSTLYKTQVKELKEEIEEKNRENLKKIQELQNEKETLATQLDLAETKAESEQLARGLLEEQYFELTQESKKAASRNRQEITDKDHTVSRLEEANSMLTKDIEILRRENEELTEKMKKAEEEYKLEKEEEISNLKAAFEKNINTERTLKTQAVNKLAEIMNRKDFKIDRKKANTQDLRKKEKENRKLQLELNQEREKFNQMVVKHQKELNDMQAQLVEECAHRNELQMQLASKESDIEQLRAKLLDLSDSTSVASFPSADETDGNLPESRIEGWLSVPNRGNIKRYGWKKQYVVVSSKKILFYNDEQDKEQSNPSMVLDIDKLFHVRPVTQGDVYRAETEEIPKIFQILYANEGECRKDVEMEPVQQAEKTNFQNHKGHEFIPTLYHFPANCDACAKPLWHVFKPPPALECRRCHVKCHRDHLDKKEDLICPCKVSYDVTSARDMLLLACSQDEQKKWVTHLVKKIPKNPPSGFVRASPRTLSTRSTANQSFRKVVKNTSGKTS

Row | SMILES | Ki (Rho kinase 1) [µM] | Ki (Rho kinase 2) [µM]
1 | CC1=C(C(=O)Nc2ccc3cnccc3c2)C(c2ccc(C(F)(F)F)c(F)c2)n2nc(CO)cc2N1 (single isomer, unassigned) [Example 65B, 7-(3-fluoro-4-(trifluoromethyl)phenyl)-2-(hydroxymethyl)-N-(isoquinolin-6-yl)-5-methyl-4,7-dihydropyrazolo[1,5-a]pyrimidine-6-carboxamide] | < 0.05 | < 0.05
2 | CC1=C(C(=O)Nc2ccc3[nH]ncc3c2)C(c2ccc(C(F)(F)F)cc2)n2nc(CO)cc2N1 (single isomer, unassigned) [Example 69A, 2-(hydroxymethyl)-N-(1H-indazol-5-yl)-5-methyl-7-(4-(trifluoromethyl)phenyl)-4,7-dihydropyrazolo[1,5-a]pyrimidine-6-carboxamide] | 0.05 to 0.5 | 0.05 to 0.5
3 | CC1=C(C(=O)Nc2ccc3[nH]ncc3c2)C(c2ccc(C(F)(F)F)cc2)n2nc(CO)cc2N1 (single isomer, unassigned) [Example 69B, 2-(hydroxymethyl)-N-(1H-indazol-5-yl)-5-methyl-7-(4-(trifluoromethyl)phenyl)-4,7-dihydropyrazolo[1,5-a]pyrimidine-6-carboxamide] | < 0.05 | < 0.05
4 | CC1=C(C(=O)Nc2ccc3[nH]ncc3c2)C(c2ccc(F)cc2)n2nc(CO)cc2N1 (single isomer, unassigned) [Example 71A, 7-(4-fluorophenyl)-2-(hydroxymethyl)-N-(1H-indazol-5-yl)-5-methyl-4,7-dihydropyrazolo[1,5-a]pyrimidine-6-carboxamide] | < 0.05 | < 0.05
5 | CC1=C(C(=O)Nc2ccc3[nH]ncc3c2)C(c2ccc(F)cc2)n2nc(CO)cc2N1 (single isomer, unassigned) [Example 71B, 7-(4-fluorophenyl)-2-(hydroxymethyl)-N-(1H-indazol-5-yl)-5-methyl-4,7-dihydropyrazolo[1,5-a]pyrimidine-6-carboxamide] | > 0.5 | > 0.5
6 | CC1=C(C(=O)Nc2ccc3cnccc3c2)C(C2COc3ccccc3O2)n2nc(CO)cc2N1 (single isomer, unassigned) [Example 72A, 7-(2,3-dihydrobenzo[b][1,4]dioxin-2-yl)-2-(hydroxymethyl)-N-(isoquinolin-6-yl)-5-methyl-4,7-dihydropyrazolo[1,5-a]pyrimidine-6-carboxamide] | < 0.05 | < 0.05
7 | CC1=C(C(=O)Nc2ccc3cnccc3c2)C(C2COc3ccccc3O2)n2nc(CO)cc2N1 (single isomer, unassigned) [Example 72B, 7-(2,3-dihydrobenzo[b][1,4]dioxin-2-yl)-2-(hydroxymethyl)-N-(isoquinolin-6-yl)-5-methyl-4,7-dihydropyrazolo[1,5-a]pyrimidine-6-carboxamide] | < 0.05 | < 0.05
8 | CC1=C(C(=O)Nc2ccc3cnccc3c2)C(C2COc3ccccc3O2)n2nc(CO)cc2N1 (single isomer, unassigned) [Example 72C, 7-(2,3-dihydrobenzo[b][1,4]dioxin-2-yl)-2-(hydroxymethyl)-N-(isoquinolin-6-yl)-5-methyl-4,7-dihydropyrazolo[1,5-a]pyrimidine-6-carboxamide] | 0.05 to 0.5 | 0.05 to 0.5
9 | CC1=C(C(=O)Nc2ccc3cnccc3c2)C(C2COc3ccccc3O2)n2nc(CO)cc2N1 (single isomer, unassigned) [Example 72D, 7-(2,3-dihydrobenzo[b][1,4]dioxin-2-yl)-2-(hydroxymethyl)-N-(isoquinolin-6-yl)-5-methyl-4,7-dihydropyrazolo[1,5-a]pyrimidine-6-carboxamide] | 0.05 to 0.5 | 0.05 to 0.5
10 | CC1=C(C(=O)Nc2ccc3cnccc3c2)C(c2ccc(C(F)(F)F)c(F)c2)n2nc(C(=O)N(C)CCN3CCCCC3)cc2N1 (single isomer, unassigned) [Example 78A, 7-(3-fluoro-4-(trifluoromethyl)phenyl)-N6-(isoquinolin-6-yl)-N2,5-dimethyl-N2-(2-(piperidin-1-yl)ethyl)-4,7-dihydropyrazolo[1,5-a]pyrimidine-2,6-dicarboxamide] | 0.05 to 0.5 | < 0.05
11 | CC1=C(C(=O)Nc2ccc3cnccc3c2)C(c2ccc(C(F)(F)F)c(F)c2)n2nc(C(=O)N(C)CCN3CCCCC3)cc2N1 (single isomer, unassigned) [Example 78B, 7-(3-fluoro-4-(trifluoromethyl)phenyl)-N6-(isoquinolin-6-yl)-N2,5-dimethyl-N2-(2-(piperidin-1-yl)ethyl)-4,7-dihydropyrazolo[1,5-a]pyrimidine-2,6-dicarboxamide] | < 0.05 | < 0.05
12 | CC1=C(C(=O)Nc2ccc3cnccc3c2)C(c2ccc(C(F)(F)F)c(F)c2)n2nc(CN(C)C)cc2N1 (single isomer, unassigned) [Example 94A, 2-((dimethylamino)methyl)-7-(3-fluoro-4-(trifluoromethyl)phenyl)-N-(isoquinolin-6-yl)-5-methyl-4,7-dihydropyrazolo[1,5-a]pyrimidine-6-carboxamide] | 0.05 to 0.5 | 0.05 to 0.5
13 | CC1=C(C(=O)Nc2ccc3cnccc3c2)C(c2ccc(C(F)(F)F)c(F)c2)n2nc(CN(C)C)cc2N1 (single isomer, unassigned) [Example 94B, 2-((dimethylamino)methyl)-7-(3-fluoro-4-(trifluoromethyl)phenyl)-N-(isoquinolin-6-yl)-5-methyl-4,7-dihydropyrazolo[1,5-a]pyrimidine-6-carboxamide] | < 0.05 | < 0.05

More lines, now with the values ahead:

Row | Ki (Rho kinase 1) [µM] | Ki (Rho kinase 2) [µM] | SMILES
14 | 0.05 to 0.5 | 0.05 to 0.5 | CC1=C(C(=O)Nc2ccc3cnccc3c2)C(c2ccc(C(F)(F)F)c(F)c2)n2nc(CN3CCN(C)CC3)cc2N1 (single isomer, unassigned) [Example 96A, 7-(3-fluoro-4-(trifluoromethyl)phenyl)-N-(isoquinolin-6-yl)-5-methyl-2-((4-methylpiperazin-1-yl)methyl)-4,7-dihydropyrazolo[1,5-a]pyrimidine-6-carboxamide]
15 | < 0.05 | < 0.05 | CC1=C(C(=O)Nc2ccc3cnccc3c2)C(c2ccc(C(F)(F)F)c(F)c2)n2nc(CN3CCN(C)CC3)cc2N1 (single isomer, unassigned) [Example 96B, 7-(3-fluoro-4-(trifluoromethyl)phenyl)-N-(isoquinolin-6-yl)-5-methyl-2-((4-methylpiperazin-1-yl)methyl)-4,7-dihydropyrazolo[1,5-a]pyrimidine-6-carboxamide]
16 | 0.05 to 0.5 | 0.05 to 0.5 | CC1=C(C(=O)Nc2ccc3cnccc3c2)C(c2ccc(C(F)(F)F)c(F)c2)n2nc(CN3CCCCC3)cc2N1 (single isomer, unassigned) [Example 97A, 7-(3-fluoro-4-(trifluoromethyl)phenyl)-N-(isoquinolin-6-yl)-5-methyl-2-(piperidin-1-ylmethyl)-4,7-dihydropyrazolo[1,5-a]pyrimidine-6-carboxamide]
17 | < 0.05 | < 0.05 | CC1=C(C(=O)Nc2ccc3cnccc3c2)C(c2ccc(C(F)(F)F)c(F)c2)n2nc(CN3CCCCC3)cc2N1 (single isomer, unassigned) [Example 97B, 7-(3-fluoro-4-(trifluoromethyl)phenyl)-N-(isoquinolin-6-yl)-5-methyl-2-(piperidin-1-ylmethyl)-4,7-dihydropyrazolo[1,5-a]pyrimidine-6-carboxamide]
18 | < 0.05 | < 0.05 | CC1=C(C(=O)Nc2ccc3cnccc3c2)C(c2ccc(C(F)(F)F)c(F)c2)n2nc(CN(C)CC3CCN(C)CC3)cc2N1 (single isomer, unassigned) [Example 104A, 7-(3-fluoro-4-(trifluoromethyl)phenyl)-N-(isoquinolin-6-yl)-5-methyl-2-((methyl((1-methylpiperidin-4-yl)methyl)amino)methyl)-4,7-dihydropyrazolo[1,5-a]pyrimidine-6-carboxamide]
19 | 0.05 to 0.5 | < 0.05 | CC1=C(C(=O)Nc2ccc3cnccc3c2)C(c2ccc(C(F)(F)F)c(F)c2)n2nc(CN(C)CC3CCN(C)CC3)cc2N1 (single isomer, unassigned) [Example 104B, 7-(3-fluoro-4-(trifluoromethyl)phenyl)-N-(isoquinolin-6-yl)-5-methyl-2-((methyl((1-methylpiperidin-4-yl)methyl)amino)methyl)-4,7-dihydropyrazolo[1,5-a]pyrimidine-6-carboxamide]
20 | 0.05 to 0.5 | 0.05 to 0.5 | CC1=C(C(=O)Nc2ccc3cnccc3c2)C(c2ccc(C)c(F)c2)n2nc(CN(C)C)cc2N1 (single isomer, unassigned) [Example 110A, 2-((dimethylamino)methyl)-7-(3-fluoro-4-methylphenyl)-N-(isoquinolin-6-yl)-5-methyl-4,7-dihydropyrazolo[1,5-a]pyrimidine-6-carboxamide]
21 | < 0.05 | < 0.05 | CC1=C(C(=O)Nc2ccc3cnccc3c2)C(c2ccc(C)c(F)c2)n2nc(CN(C)C)cc2N1 (single isomer, unassigned) [Example 110B, 2-((dimethylamino)methyl)-7-(3-fluoro-4-methylphenyl)-N-(isoquinolin-6-yl)-5-methyl-4,7-dihydropyrazolo[1,5-a]pyrimidine-6-carboxamide]
